# Laboratory results reported in patent US20030040485A1, “alpha/beta-adrenoceptors blockers and angiotensin converting enzyme inhibitors derived from hydroxyphenyl carboxylic acid and alcohol” (priority 2001, published 2003).
# Assays:
# α1-adrenoceptor (aorta) = experiment: α-adrenoceptor antagonism, isolated rat aorta, pA2 vs norepinephrine; set-up: species or system Wistar rat; details: Schild plot, mean ± SEM of six to eight experiments
# Method: Vascular α-adrenoceptor blocking activity was evaluated in the Wistar rat aorta preparation. Isolated rat aorta preparations were mounted in organ bath and suspended in Krebs solution at 37° C. […] or 75 mM KCl was added to the bath medium after a control concentration-response curve to norepinephrine had been obtained. The tissue was exposed to test compounds for 30 min before rechallenging with norepinephrine. Inhibitions were expressed as percentages of the maximum contraction obtained by the challenge of the tissues with norepinephrine. The 70 mM NaCl on 75 mM KCl solution may to replace with equimolar KCl, if necessary.
# The methods published by Huang Y C. et. al. in J Cardiovasc Pharmacol.34, pp.10-20 (1999) and Drug Devel Res. 47, 77-89 (1999). Through referenced and modified method to evaluate, test compounds whether have α1-adrenergic and sertoninergic effect.
# Isolated Wistar rat aorta preparations were mounted in organ bath and suspended in Krebs solution (NaCl, 118 mM, KCl, 4.8 mM; CaCl,2.5 mM; MgSO4,1.2 mM; K2PO4,1.2 Mm; […] Mm; glucose, 11 mM) at 37° C. under 1 g resting tension.
# Upon balancing for 60 minutes, 10^−10-10^−4 M norepinephrine is administered directly from low concentration to high using 0.5 log unit to gradually increase until the maximum reaction is reached, and this act as the control unit. Then different concentrations of the synthetic testing compounds, 10^−7 M, 10^−6 M, or 10^−5M, are used, and upon 30 minutes of reaction, norepinephrine is used again to complete the cumulative dose. The EC50 value of blocking […] may be obtained from observation of the suppressing effects caused by different concentrations of the synthetic testing compound.
# The equation is as follows: […]
# [1] = test system: β2-adrenoceptor (trachea); experiment: β2-adrenoceptor antagonism, trachea, pA2; set-up: species or system rat; details: Schild plot, mean ± SEM of six to eight experiments
# Method: (§1) When the spontaneously beating rate of right atria reached a certain stability, cumulative administration of L-isoproterenol from 1×10^−10˜3×10^−10 M caused the heart rate to increase continuously, and a cumulative dose-response curve was obtained. Then the L-isoproterenol was thoroughly washed off with Kreb's solution to recover the right atria's heart rate stability. After the equilibrum was reached again for at least 60 minutes, different concentrations (10^−7, 10^−6, 10^−5 M) of compounds were added. 30 minutes later, cumulative administration of L-isoproterenol from 1×10^−10˜3×10^−10 M were carried out again, and another new cumulative dose-response curve was obtained. Administration of L-isoproterenol started from concentration 1×10^−10 M, and the concentration was raised 0.5 log each time for a total of six times. Cumulative administration interval was when the previous concentration reached its greatest effect, the next concentration would be immediately given. […] In other groups of rats, after separate administration of test compounds, their pA2 values were obtained.
# pA2=−Log KB Log(DRADJ−1)=n log[B]−LogKB
# [2] = test system: blood pressure of normotensive male Wistar rats; experiment: Heart rate and blood pressure in living rat (i.v., anaesthetized); assay type: in vivo; details: maximal decrease, 2 mg/kg i.v.
# Text: Normotensive Male Wistar rats (NTRs), weighing 200˜300 g were abdominal anaesthetized with pentobarbital sodium. Tracheal was cannulated to maintain normal respiration. Polyethylene tube was inserted into the left femoral vein to facilitate drug administration. A 3-way stopcock was used, with one end comnected to a syringe for drug injection, while the other end was connected to the syringe filled with physiological saline. The latter was used to prevent residual drugs in the polyethylene tube after injection, which would affect experimental accuracy.
# The right femoral artery was also inserted with polyethylene, and a 3-way stopcock was used tool, where one end was connected to heparin solution to prevent embolism. The other end was comnected to a Disposable Diaphragm Dome, TA1019, and linked to a pressure transducer (Model P10EZ; Spectramed, Oxnard, Calif., USA). Through an amplifier, a recorder recorded the overall and average arterial pressure; heart rate to evaluate the effect of drug on blood pressure and heart rate. Different concentrations 0.1, 1.0, 2.0, 3.0 mg/kg of test compounds were given to the rats via femoral vein and the differences in the heart rate and blood pressure were compared. Table 2 shown maximal decrease of blood pressure affect of compounds after given 2.0 mg/kg test compounds to the rats.
# [3] = target: β1-adrenoceptor (left atrium) (Rattus norvegicus, UniProt P18090); experiment: β1-adrenoceptor antagonism, left atrium, pA2; details: Schild plot, mean ± SEM of six to eight experiments
# [4] = test system: β1-adrenoceptor (right atrium); experiment: β1-adrenoceptor antagonism, spontaneously beating right atrium, pA2 vs L-isoproterenol; details: for β1/β2 Ratio: antilogarithm of difference between mean pA2 of right atrium and trachea; for β1 pA2 value, Right atrium: Schild plot, mean ± SEM of six to eight experiments
# Method: The spontaneously-beating right atria was clipped on both end by heart shaped clips, where one end was fixed at the bottom of 10 ml of tissue bath made of physiological saline solution, and temperature maintained at 37° C. The other end of the atria was connected to a force transducer, and isometric contractions and beating rate of the right atria were recorded by COULBOURN AT-High-Speed VideoFigure. After the samples were given 250 mg of contractions and reach equilibrium the following experiments were carried out:
# as §1
# pA2=−Log KB Log(DRADJ−1)=n log[B]−LogKB
# [5] = target: T1, angiotensin converting enzyme (ACE) (Rattus norvegicus, UniProt P47820); experiment: ACE activity value on tissue (rat lung membrane, Hip-His-Leu, fluorometric); assay type: biochemical; details: mean of three samples
# T1 construct: Centrifuged 250-300 mg lung tissue; from tissue; host or cells: rat lung membrane fraction
# T1 sequence (P47820 36-1313): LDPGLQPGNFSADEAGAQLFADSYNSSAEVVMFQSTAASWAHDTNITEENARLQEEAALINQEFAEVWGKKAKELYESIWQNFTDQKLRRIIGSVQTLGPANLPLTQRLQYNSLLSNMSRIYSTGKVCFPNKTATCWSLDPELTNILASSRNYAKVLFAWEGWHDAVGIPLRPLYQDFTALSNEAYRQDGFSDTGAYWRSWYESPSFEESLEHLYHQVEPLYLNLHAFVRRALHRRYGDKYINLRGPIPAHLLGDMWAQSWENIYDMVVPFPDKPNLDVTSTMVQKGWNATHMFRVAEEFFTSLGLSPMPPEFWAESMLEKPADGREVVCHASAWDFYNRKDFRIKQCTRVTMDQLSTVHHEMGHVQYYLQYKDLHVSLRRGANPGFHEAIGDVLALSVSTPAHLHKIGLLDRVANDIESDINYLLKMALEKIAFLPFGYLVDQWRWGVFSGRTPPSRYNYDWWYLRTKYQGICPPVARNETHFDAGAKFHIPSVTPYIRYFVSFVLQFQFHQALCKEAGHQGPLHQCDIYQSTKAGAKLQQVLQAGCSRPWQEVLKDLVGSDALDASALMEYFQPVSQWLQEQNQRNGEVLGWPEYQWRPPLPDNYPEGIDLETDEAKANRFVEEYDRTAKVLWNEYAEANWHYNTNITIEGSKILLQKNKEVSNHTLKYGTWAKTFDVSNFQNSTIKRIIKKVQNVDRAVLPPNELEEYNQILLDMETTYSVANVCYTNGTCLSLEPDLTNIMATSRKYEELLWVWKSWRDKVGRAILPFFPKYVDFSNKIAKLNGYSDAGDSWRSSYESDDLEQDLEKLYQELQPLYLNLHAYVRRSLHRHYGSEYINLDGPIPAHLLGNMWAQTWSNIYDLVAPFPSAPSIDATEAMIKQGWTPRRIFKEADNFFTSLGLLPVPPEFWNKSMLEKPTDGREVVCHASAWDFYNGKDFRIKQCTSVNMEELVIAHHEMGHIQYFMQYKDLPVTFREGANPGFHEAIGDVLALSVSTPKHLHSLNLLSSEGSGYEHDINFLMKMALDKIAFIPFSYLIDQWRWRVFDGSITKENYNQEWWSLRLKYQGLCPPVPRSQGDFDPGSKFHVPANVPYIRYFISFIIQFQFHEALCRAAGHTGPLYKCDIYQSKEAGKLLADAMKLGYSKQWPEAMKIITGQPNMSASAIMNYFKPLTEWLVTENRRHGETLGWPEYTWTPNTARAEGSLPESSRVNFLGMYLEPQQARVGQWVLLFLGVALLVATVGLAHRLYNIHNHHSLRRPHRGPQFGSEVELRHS
# Method: Centrifuged 250-300 mg lung tissue, 3 ml extracted liquid (10 mmol/L HEPES, 125 mmol/L NaCl, pH7.4) under 12000 g for 20 minutes at 4° C. by Teflon-glass homogenizer, the cell membrane was obtained. The 3 ml homogenized liquid was added into twice, before and after centrifuged. Then the Lowry's method was adopted to determine the protein content in the membrane. Mixing 15 minute of liquid and 30 mmol/L Hip-His-Leu solution at 37° C. Fluorometric was used to determine the Hippurate content. test compounds (10^−8M, 10^−7M, 10^−6M) dissolved in PBS normal saline and used as control group. Then ACE activity inhibition rate was determined.
# [6] = target: T2, angiotensin converting enzyme (ACE) (Rattus norvegicus, UniProt P47820); experiment: ACE inhibitory activity in rat serum (Hycor kit, [3H]-hippuryl-glycyl-glycine); assay type: biochemical; details: mean of three samples
# T2 construct: from tissue; host or cells: rat serum
# T2 sequence (P47820 36-1238 limits assumed): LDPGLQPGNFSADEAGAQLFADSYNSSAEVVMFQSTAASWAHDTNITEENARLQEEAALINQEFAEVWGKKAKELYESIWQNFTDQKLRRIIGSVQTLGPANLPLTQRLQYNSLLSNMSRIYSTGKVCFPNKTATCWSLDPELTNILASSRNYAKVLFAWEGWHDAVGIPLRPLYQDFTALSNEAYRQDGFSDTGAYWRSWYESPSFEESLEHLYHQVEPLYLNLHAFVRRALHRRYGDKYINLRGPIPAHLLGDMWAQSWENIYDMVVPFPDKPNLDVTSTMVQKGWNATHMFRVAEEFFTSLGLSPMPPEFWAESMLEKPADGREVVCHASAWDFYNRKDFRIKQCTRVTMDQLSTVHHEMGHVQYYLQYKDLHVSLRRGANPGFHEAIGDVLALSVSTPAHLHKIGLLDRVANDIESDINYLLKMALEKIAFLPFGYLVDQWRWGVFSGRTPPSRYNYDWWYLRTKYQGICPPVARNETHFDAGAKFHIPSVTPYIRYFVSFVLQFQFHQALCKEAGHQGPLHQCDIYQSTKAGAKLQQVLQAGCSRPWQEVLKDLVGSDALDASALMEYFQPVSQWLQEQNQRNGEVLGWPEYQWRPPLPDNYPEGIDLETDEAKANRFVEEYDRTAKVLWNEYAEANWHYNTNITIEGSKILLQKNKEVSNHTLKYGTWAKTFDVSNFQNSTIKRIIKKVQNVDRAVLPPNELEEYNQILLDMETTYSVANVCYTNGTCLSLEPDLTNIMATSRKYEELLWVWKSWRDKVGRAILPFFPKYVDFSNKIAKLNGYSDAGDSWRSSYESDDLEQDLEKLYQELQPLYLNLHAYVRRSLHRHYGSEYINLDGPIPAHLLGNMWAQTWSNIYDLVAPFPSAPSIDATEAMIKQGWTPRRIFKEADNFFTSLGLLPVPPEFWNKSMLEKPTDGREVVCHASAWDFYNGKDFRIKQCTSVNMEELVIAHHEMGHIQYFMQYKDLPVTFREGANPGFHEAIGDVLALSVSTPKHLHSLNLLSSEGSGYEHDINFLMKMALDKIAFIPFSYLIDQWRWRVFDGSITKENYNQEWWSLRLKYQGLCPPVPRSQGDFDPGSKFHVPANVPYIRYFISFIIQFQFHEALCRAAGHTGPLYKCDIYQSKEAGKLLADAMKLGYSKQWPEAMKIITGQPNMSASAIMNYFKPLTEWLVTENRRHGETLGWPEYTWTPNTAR
# Method: ACE value in serum was determined by Hycor kit, rat serum were cultured in 37° C. of [^3H]-hippuryl-glycyl-glycine for 60 minutes. While [^3H]-hippuryl-glycyl-glycine contains three peptide. [^3H] hippuric acid was obtained when extracted of culture solution with ethyl acetate, the content be determined by spectrophotometer. The content in serum sample was as the control group after it was added with 10^−8M, 10^−7M, 10^−6M compounds, then dissolved in PBS.
# Sequence of β1-adrenoceptor (left atrium) (P18090 whole entry): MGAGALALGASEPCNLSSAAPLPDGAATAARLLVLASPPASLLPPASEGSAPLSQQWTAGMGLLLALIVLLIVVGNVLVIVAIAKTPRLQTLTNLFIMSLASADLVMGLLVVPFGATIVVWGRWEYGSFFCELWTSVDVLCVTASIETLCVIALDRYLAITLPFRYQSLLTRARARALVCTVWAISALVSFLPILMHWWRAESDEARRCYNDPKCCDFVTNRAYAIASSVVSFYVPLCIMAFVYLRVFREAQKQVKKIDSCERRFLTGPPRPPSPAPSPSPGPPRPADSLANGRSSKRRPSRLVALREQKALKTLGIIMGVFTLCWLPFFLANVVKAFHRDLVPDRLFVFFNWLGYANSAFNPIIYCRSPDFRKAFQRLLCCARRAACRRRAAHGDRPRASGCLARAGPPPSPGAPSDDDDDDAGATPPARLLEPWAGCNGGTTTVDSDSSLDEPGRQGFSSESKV
Compound,"β1 pA2 value, Left atrium [3]","inhibition at 1 µM ([5]; 10^−6M, read-out: Inhibitory activity of ACE, In Rat lung) [%]","inhibition at 0.1 µM ([5]; 10^−7M, read-out: Inhibitory activity of ACE, In Rat lung) [%]","Inhibitory activity of ACE, In Rat lung ([5]; 10^−8M) [%]",inhibition at 1 µM ([6]; 10^−6M) [%],inhibition at 0.1 µM ([6]; 10^−7M) [%],inhibition at 0.01 µM ([6]; 10^−8M) [%],"α1 pA2 value, Aorta (α1-adrenoceptor (aorta))","β2 pA2 value, Trachea [1]",Decrease of blood pressure [2] [mmHg],β1/β2 Ratio [4],"β1 pA2 value, Right atrium [4]",Kb [3] [nM]
"CC(C)NCC(O)COc1cccc2ccccc12 (centres unmarked) [propranolol, reference compound]",,,,,,,,<5.00,8.07,,,,
"CC(CCc1ccccc1)NCC(O)c1ccc(O)c(C(N)=O)c1 (centres unmarked) [labetalol, reference compound]",,,,,,,,6.87,7.54,,2.3,7.91,28.8
"CC(C)NCC(O)COc1ccc(CC(N)=O)cc1 (centres unmarked) [atenolol, reference compound]",,,,,,,,<5.00,5.81,,,7.34,
"CCOC(=O)CCc1ccc(OCC(O)CNCCOc2ccccc2OC)cc1 (centres unmarked) [compound 3, Propiodilol]",6.78,,,,,,,,6.71,56 ± 3.8,1.9,6.74,

# Further lines, with some results ahead:
"β1 pA2 value, Left atrium [3]","inhibition at 1 µM ([5]; 10^−6M, read-out: Inhibitory activity of ACE, In Rat lung) [%]","inhibition at 0.1 µM ([5]; 10^−7M, read-out: Inhibitory activity of ACE, In Rat lung) [%]","Inhibitory activity of ACE, In Rat lung ([5]; 10^−8M) [%]",inhibition at 1 µM ([6]; 10^−6M) [%],inhibition at 0.1 µM ([6]; 10^−7M) [%],inhibition at 0.01 µM ([6]; 10^−8M) [%],Compound,"α1 pA2 value, Aorta (α1-adrenoceptor (aorta))","β2 pA2 value, Trachea [1]",Decrease of blood pressure [2] [mmHg],β1/β2 Ratio [4],"β1 pA2 value, Right atrium [4]",Kb [3] [nM]
6.76,,,,,,,"COc1ccccc1OCCNCC(O)COc1ccc(CO)cc1OC (centres unmarked) [compound 4, Vanydilol]",7.89,6.69,83 ± 9.1,1.6,6.72,
,98,93,51,99,94,54,"CCOC(=O)[C@H](CCc1ccccc1)N[C@@H](C)C(=O)N1CCC[C@H]1C(=O)O [Enalapril, reference compound]",,,,,,
6.84,,,,,,,"COc1cc(CO)ccc1OCC(O)CNC(C)(C)C (centres unmarked) [compound 2, Vanynolol]",7.23,6.61,72 ± 2.5,2.3,6.67,
6.92,,,,,,,1-[(4 -Propenoic acid ethyl ester)phenoxy-3-amino]-propanol [compound 1],,6.43,60 ± 4.7,2.1,6.83,
